Test results published in article PMC6811774, “Potent, selective, and subunit‐dependent activation of TRPC5 channels by a xanthine derivative” (British Journal of Pharmacology, 2019).
Where “and” joins values, the source holds several entries; their conditions need not be identical. Equal entries are not always repeated. Where two headings read alike, the source gives them in different places.

Biological target: T1, TRPC5:C5 channels (hTRPC5) (Homo sapiens, UniProt Q9UL62)
T1 construct: expressed in transfected cells
T1 sequence (Q9UL62 1-973): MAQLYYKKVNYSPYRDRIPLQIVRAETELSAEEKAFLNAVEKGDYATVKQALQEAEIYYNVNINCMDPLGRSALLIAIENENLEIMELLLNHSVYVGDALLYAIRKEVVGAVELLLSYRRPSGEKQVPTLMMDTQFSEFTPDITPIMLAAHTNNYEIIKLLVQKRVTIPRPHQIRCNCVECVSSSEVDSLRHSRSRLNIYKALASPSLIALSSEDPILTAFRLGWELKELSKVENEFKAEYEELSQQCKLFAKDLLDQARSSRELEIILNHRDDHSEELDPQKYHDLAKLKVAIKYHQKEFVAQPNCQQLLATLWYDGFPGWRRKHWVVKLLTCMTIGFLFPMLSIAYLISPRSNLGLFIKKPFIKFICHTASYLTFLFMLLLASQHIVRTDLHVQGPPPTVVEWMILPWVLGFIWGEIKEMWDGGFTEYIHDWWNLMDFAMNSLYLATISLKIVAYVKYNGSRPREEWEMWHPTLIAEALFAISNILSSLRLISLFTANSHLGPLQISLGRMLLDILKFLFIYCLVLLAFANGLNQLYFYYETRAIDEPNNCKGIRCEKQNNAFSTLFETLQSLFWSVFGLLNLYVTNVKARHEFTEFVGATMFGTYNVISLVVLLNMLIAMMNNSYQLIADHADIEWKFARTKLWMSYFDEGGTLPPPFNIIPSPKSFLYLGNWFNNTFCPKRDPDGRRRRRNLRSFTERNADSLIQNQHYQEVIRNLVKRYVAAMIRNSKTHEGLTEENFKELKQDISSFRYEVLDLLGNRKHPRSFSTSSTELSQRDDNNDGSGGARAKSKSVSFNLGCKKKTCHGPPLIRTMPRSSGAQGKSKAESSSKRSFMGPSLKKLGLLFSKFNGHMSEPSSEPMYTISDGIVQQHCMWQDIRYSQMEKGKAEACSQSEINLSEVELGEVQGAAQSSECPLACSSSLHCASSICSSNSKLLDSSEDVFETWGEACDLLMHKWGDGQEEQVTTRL
Test: [Ca2+]i measurement (Fura-2, FlexStation) in (Tet+) HEK T-REx cells expressing hTRPC5
Assay type: cell-based
Procedure: HEK T‐REx™ cell line was transfected with TRPC5‐SYFP2 or TRPC4‐SYFP2 using FuGENE® HD transfection reagent. After 48 hr, cells were put under antibiotic selection using 400 μg·ml^−1 zeocin and 10 μg·ml^−1 blasticidin S (Invivogen, San Diego, California, USA). Medium changes were carried out regularly to remove dead cells. HEK T‐REx cells expressing tetracycline‐inducible human TRPC5, TRPC4–C1, and TRPC5–C1 were created as described previously (Akbulut et al., 2015; Ludlow et al., 2017; Rubaiy, Ludlow, Henrot, et al., 2017). TRPC5–C1 and TRPC4–C1 concatemers allow expression of functional channels with defined 2:2 stoichiometry that display ion permeability and current–voltage relationships distinct from those of homomeric TRPC4:C4 or TRPC5:C5 channels and consistent with those obtained upon co‐expression of TRPC1 with TRPC4 or TRPC5 (Ludlow et al., 2017; Rubaiy, Ludlow, Bon, & Beech, 2017; Rubaiy, Ludlow, Henrot, et al., 2017). Cells were cultured in DMEM‐F12 GlutaMAX (Invitrogen, Paisley, UK) containing 10% FBS (Sigma‐Aldrich, Gillingham, UK), with the addition of blasticidin (10 μg·ml^−1) and zeocin (400 μg·ml^−1) to maintain the stable incorporation of the tetracycline repressor and the channel of interest, respectively. Expression of proteins was induced by the addition of tetracycline (1 μg·ml^−1, 24 hr). Cells were maintained in a humidified incubator with 5% CO2 at 37°C. HEK 293 cells stably expressing tetracycline‐regulated human http://www.guidetopharmacology.org/GRAC/ObjectDisplayForward?objectId=494 were prepared similarly and have also been described previously (McHugh, Flemming, Xu, Perraud, & Beech, 2003). For experiments using transient co‐expression of TRPC1 and TRPC5, HEK cells at 40–60% confluency were transfected with pIRES2‐AcGFP1 and pIRES2‐DsRed‐Express2 plasmids containing human TRPC1 and TRPC5, respectively, using Lipofectamine 3000 (ThermoFisher Scientific, Yokohama, Japan). All experiments using transient expression were performed within 48 hr after transfection. A498 cells were cultured in Minimum Essential Medium containing Earle's salts (ThermoFisher Scientific, Loughborough, UK), supplemented with 10% FBS and penicillin–streptomycin (100 units per ml^−1, 100 μg·ml^−1; ThermoFisher Scientific, Loughborough, UK). CHO cells stably expressing http://www.guidetopharmacology.org/GRAC/ObjectDisplayForward?objectId=510 were maintained in Ham's Nutrient Mixture F12 (ThermoFisher Scientific, Loughborough, UK) supplemented with 10% FBS, penicillin–streptomycin, and 1 mg·ml^−1 G418 (InvivoGen, San Diego, California, USA). For experiments using hTRPC3 and hTRPC6, WT HEK 293 cells were transfected with hTRPC3 (Naylor et al., 2016) or hTRPC6 (cloned into pcDNA3) using jetPRIME® transfection reagent (VWR, Lutterworth, UK). […]

## Cn1c(=O)n(CCCO)c(=O)c2c1nc(Oc1ccc(Cl)c(OC(F)(F)F)c1)n2Cc1ccc(Cl)cc1 [AM237]
Cells overexpressing TRPC5 or TRPC5-SYFP2
  Concentration leading to a sustained increase in [Ca2+]i: ≥ 3 nM
hTRPC5, response at 250–295 s vs baseline, read-out: EC50, activation (increase in [Ca2+]i)
  EC50: 20 nM
hTRPC5 concentration–response curve
  Hill slope, activation: 1.7
Range over TRPC5 and TRPC5-SYFP2 experiments, read-out: EC50, TRPC5:C5 activation in [Ca2+]i assay (summary range)
  EC50: 15 to 20 nM and 10 to 20 nM
